Experimental data taken from patent US11219623B2, “Inflammasome inhibition for the treatment of Parkinson's disease, Alzheimer's disease and multiple sclerosis” (University of Kentucky Research Foundation, priority 2015, dated 2022).

Assays:
[1] = tested on: Caspase-1; assay: iGLuc luminescence assay of ATP-induced Caspase-1 activation in J774 iGLuc cells; format: cell-based, mouse
Experimental: Caspase-1 is the enzyme at the core of the inflammasome complex and is an important danger response signal and mediator of RPE cell death in AMD. […] Importantly, there was some difference between individual compounds in terms of the dose response curve, emphasizing the need to test each compound (with unique R group(s)) individually.
To obtain the data set forth in FIGS. 64-73, an iGLuc assay was conducted (modified from Bartok et al. iGLuc: a luciferase-based inflammasome and protease activity reporter. Nature Methods 2013; 10(2):147-54). Briefly, 100,000 iGLuc cells per well were plated in a 96 well plate overnight. The next morning, media is aspirated from the plate and replaced with 75 μL of serum free DMEM with drugs (NRTIs or modified NRTIs) for 30 min. After 30 minutes of drug exposure, 20 mM ATP (25 μL) is added for a final concentration of 5 mM. 50 μL of media from each well is collected and 50 μL of coelenterazine 4.4 μM is added to each sample, and luminescence is read immediately.

[2] = tested on: Caspase-1; assay: Alu RNA-induced Caspase-1 activation, western blot, primary human RPE cells; format: cell-based
From the text: The bottom row in FIG. 5 is a vinculin loading control.

[3] = tested on: Caspase-1; assay: Alu RNA-induced Caspase-1 activation, primary mouse RPE cells; format: cell-based
[4] = tested on: IRAK4; assay: LPS/ATP-induced IRAK4 phosphorylation, primary human RPE cells; format: cell-based; conditions: 25/100 uM
From the text: The loading control in FIG. 8 is vinculin. Furthermore, as shown, LPS and ATP activate the NLRP3 inflammasome only in combination, thus treatment with one or the other alone is useful as a control for this experiment.

[5] = tested on: IL-18; assay: LPS/ATP-induced IL-18 maturation, mouse bone marrow-derived macrophages; format: cell-based; conditions: 100 uM; cell culture supernatants
[6] = tested on: IL-1 beta; assay: Nigericin-induced IL-1 beta maturation, mouse bone marrow-derived macrophages; format: cell-based; conditions: 100, 250 uM
[7] = tested on: IL-1 beta; assay: MSU-induced IL-1 beta secretion from PMA-differentiated THP-1 monocytes, ELISA; format: cell-based, human; conditions: 25-1000 uM
From the text: Human THP-1 monocytes were differentiated into macrophages with PMA.
To illustrate this, human THP-1 monocytes were differentiated into macrophages with PMA. Treatment with MSU increased IL-1 beta secretion compared to non-treated cells. […]

[8] = tested on: IL-1 beta mRNA; assay: IL-1beta priming (mRNA) induced by Alu RNA, primary human RPE cells; format: cell-based; conditions: 100 uM; 24 hours; normalized to 18S RNA
Experimental: FIG. 14 illustrates that Alu RNA transfection increases IL-1 beta mRNA levels in primary human RPE cells at 24 hours, an event termed “priming”, (Y-axis) compared to mock (transfection reagent alone).

[9] = target: T1, mouse P2X7 receptor (Mus musculus, UniProt Q9Z1M0); assay: P2X7 cation channel function, patch clamp, HEK293 cells expressing mouse P2X7; format: cell-based; conditions: mouse P2X7 in HEK293
T1 construct: expressed in transfected cells; host or cells: HEK293 cells

[10] = target: T2, rat P2X7 receptor (Rattus norvegicus, UniProt Q64663); assay: P2X7 cation channel function, patch clamp, HEK293 cells expressing rat P2X7; format: cell-based; conditions: rat P2X7 in HEK293
T2 construct: expressed in transfected cells; host or cells: HEK293 cells

[11] = tested on: GFP-expressing lentivirus; assay: GFP-expressing lentivirus transduction/replication assay in HeLa cells; format: cell-based
Experimental: All drugs were added at a concentration of 10 μM. Cells were imaged for GFP expression 72 hours after addition of lentivirus. GFP-positive cells per field of view were recorded. n=4-11, error bars S.E.M. Reverse transcription of lentivirus is essential for GFP expression; modified NRTIs should not block reverse transcriptase, whereas NRTIs are known to block reverse transcriptase.
(§1) The present disclosure further provides the results of additional experiments in FIG. 21-FIG. 23.

[12] = tested on: mtDNA; assay: mtDNA levels, real-time quantitative PCR, primary mouse RPE cells; format: cell-based; conditions: normalized to chromosomal DNA, n=4
From the text: as §1

[13] = tested on: wild-type mice; assay: pAlu-induced RPE degeneration, mouse model of dry AMD; format: in vivo; conditions: daily oral administration
Experimental: Mouse studies were conducted to study treatment with NRTIs or derivatives.

[14] = tested on: mice; assay: Graft-versus-host disease model, mice receiving allogeneic bone marrow and T cells; format: in vivo, mouse; conditions: vs. 0% in saline treated controls
From the text: To explore the potential therapeutic relevance of NRTIs beyond the Alu-induced model of geographic atrophy (GA), it was hypothesized that if NRTIs function as generic inflammasome inhibitors, then they might be broadly useful in other animal models of disease that are also driven by P2X7.

[15] = tested on: wild-type mice; assay: Alu RNA-induced RPE degeneration, mouse model of dry AMD; conditions: co-delivered to the vitreous humor; one week after delivery
[16] = tested on: IRAK4; assay: Alu RNA-induced IRAK4 phosphorylation, primary human RPE cells
[17] = target: T3, human P2X7 receptor (Homo sapiens, UniProt Q99572); conditions: 64 μM drug; bzATP 100 μM; n=12
T3 sequence (Q99572 1-595): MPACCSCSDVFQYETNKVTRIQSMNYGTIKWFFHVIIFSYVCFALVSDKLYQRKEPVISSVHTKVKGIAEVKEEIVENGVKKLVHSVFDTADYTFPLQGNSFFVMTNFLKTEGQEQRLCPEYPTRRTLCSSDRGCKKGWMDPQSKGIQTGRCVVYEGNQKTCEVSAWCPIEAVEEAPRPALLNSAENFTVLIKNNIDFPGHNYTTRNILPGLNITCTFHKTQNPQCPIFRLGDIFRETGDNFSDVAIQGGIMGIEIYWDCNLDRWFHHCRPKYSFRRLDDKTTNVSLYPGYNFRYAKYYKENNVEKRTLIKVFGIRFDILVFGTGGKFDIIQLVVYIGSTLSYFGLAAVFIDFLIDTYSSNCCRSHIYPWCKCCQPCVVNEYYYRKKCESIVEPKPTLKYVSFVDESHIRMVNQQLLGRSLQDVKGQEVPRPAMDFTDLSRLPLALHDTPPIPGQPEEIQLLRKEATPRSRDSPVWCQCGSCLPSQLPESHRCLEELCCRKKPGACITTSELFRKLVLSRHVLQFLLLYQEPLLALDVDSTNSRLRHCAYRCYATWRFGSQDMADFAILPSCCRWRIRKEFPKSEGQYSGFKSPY

[18] = tested on: Caspase-1; assay: LPS/ATP-induced Caspase-1 activation, mouse bone marrow-derived macrophages, western blot

T2 sequence (Q64663 whole entry): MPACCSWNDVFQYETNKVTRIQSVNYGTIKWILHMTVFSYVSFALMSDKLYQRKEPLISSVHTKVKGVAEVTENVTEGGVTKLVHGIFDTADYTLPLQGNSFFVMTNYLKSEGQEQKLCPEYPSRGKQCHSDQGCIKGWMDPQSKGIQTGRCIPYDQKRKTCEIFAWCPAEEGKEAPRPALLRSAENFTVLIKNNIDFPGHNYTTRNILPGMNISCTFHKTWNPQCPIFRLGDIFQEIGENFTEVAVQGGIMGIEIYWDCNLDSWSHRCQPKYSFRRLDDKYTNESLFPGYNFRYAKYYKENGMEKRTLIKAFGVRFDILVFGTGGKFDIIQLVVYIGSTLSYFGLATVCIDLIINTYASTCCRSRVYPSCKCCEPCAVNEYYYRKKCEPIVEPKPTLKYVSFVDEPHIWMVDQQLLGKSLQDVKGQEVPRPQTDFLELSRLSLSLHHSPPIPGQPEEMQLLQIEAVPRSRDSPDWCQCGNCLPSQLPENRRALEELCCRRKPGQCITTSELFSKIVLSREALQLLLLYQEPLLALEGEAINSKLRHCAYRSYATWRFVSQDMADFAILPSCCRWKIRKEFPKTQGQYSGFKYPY
T1 sequence (Q9Z1M0 whole entry): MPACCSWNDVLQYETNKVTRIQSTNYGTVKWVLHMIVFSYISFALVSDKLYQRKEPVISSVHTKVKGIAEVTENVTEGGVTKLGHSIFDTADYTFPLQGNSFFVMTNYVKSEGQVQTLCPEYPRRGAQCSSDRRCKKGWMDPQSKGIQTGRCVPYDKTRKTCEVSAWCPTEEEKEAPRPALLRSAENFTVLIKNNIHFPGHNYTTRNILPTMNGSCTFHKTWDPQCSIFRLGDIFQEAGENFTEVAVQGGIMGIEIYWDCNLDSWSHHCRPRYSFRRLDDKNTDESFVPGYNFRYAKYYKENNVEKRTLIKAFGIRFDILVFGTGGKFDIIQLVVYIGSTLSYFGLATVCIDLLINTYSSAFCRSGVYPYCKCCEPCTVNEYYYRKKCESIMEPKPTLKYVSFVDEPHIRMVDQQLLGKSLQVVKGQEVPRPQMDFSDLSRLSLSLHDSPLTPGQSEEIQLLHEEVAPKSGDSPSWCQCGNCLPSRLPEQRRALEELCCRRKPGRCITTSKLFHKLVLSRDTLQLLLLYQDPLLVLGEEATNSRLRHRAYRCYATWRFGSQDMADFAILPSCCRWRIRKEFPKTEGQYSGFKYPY

Cc1cn([C@H]2C=C[C@@H](CO)O2)c(=O)[nH]c1=O [d4T, 2′3′ dideoxythymidine]
Caspase-1 cleavage (luminescence) ([1]; ATP 5 mM, drug 1 nM-100 μM, N=3): reduces Caspase-1 cleavage in a dose-dependent fashion | reduction of inflammasome activation ([1]; ATP (5 mM), mouse J774 iGLuc cells, FIGS. 70-73): about 35% | Alu RNA-induced Caspase-1 maturation ([2]; 100 uM, 24 hours after Alu administration): blocked | Alu RNA-induced Caspase-1 activation/cleavage ([2]; concentration not given): prevents Caspase 1 cleavage | Caspase 1 cleavage to active 20 kDa form induced by Alu RNA [3]: prevents Caspase 1 cleavage | IRAK4 phosphorylation induced by LPS/ATP [4]: blocks | IL-18 maturation induced by LPS/ATP [5]: inhibit | IL-1 beta maturation (18 and 22 kDa forms) induced by nigericin [6]: inhibits IL-1 beta maturation | IL-1beta secretion induced by MSU [7]: did not significantly affect IL-1beta secretion | IL-1 beta mRNA levels (priming) induced by Alu RNA [8]: reduces IL-1beta priming | P2X7 cation channel function [9]: did not significantly modulate P2X7 cation channel function | P2X7 cation channel function [10]: did not significantly modulate P2X7 cation channel function | lentivirus replication (GFP-positive cells per field) ([11]; 10 μM, 72 hours, MOI 20): blocked lentivirus GFP expression | replication of GFP-expressing lentivirus ([11]; FIG. 22, concentration not given): blocks replication | mtDNA levels [12]: reduces mtDNA levels | pAlu-induced RPE degeneration [13]: blocked RPE degeneration | survival [14]: 30-70% | Alu RNA-induced RPE cell death [15]: prevents Alu RNA-induced RPE cell death in a dose-dependent manner | IRAK4 phosphorylation induced by Alu RNA [16]: blocks phosphorylation of IRAK4 | P2X7-mediated YO-PRO-1 dye uptake induced by bzATP [17]: inhibited | Caspase-1 activation (active p20 band) induced by LPS/ATP ([18]; 100 uM, cell culture supernatants): inhibit Caspase-1 activation | LPS/ATP-induced Caspase-1 maturation ([18]; concentration not given): inhibited LPS/ATP-induced Caspase-1 maturation
